In patent US8354436B2 (4SC Discovery GmbH, priority 2011, dated 2013):
Like-named read-outs stand apart in the source and are kept apart here.

Tests used:
Format in all cases: cell-based
[1] = system: PBMC from healthy human donors; experiment: T cell proliferation assay (PHA-stimulated human PBMC, BrdU ELISA); conditions: 48 hours
Summary of the method: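 Proliferation was quantified by BrdU ELISA 48 hours after starting culture of 1×10⁵ human PBMC per well with test compound and 2 μg/ml phytohaemagglutinin. Cells came from healthy donors via Ficoll separation and were kept in RPMI1640 with 10% dialysed heat-inactivated FCS.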

[2] = system: IFN-γ; experiment: IFN-γ production by PHA-stimulated human PBMC (OptEIA human IFN-g ELISA)
Summary of the method: (§1)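 Supernatant cytokine levels are read by bead-based Luminex or sandwich ELISA after 48 h culture of PHA-stimulated (2 μg/ml) human PBMC with compound. Cells are seeded at 1×10^5 per well; IC50 values derive from semilogarithmic dilution series.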

[3] = system: IL-17FF; experiment: IL-17FF production by PHA-stimulated human PBMC (human IL-17F ELI-Pair)
Summary of the method: as §1

[4] = PHA-stimulated human PBMC, column D, read-out: IC50 (Tcell proliferation)
[5] = PHA-stimulated human PBMC, 48 hours, column C, read-out: IC50 (IFNγ)
[6] = PHA-stimulated human PBMC, 48 hours, column B, read-out: IC50 (IL-17FF)
[7] = human PBMC, 2 μg/ml PHA, read-out: D: IC50 (Tcell proliferation)
[8] = human PBMC, 2 μg/ml PHA, 48 hours, read-out: C: IC50 (IFNγ)
[9] = human PBMC, 2 μg/ml PHA, 48 hours, read-out: B: IC50 (IL-17FF)

SMILES	IC50 [1, 4] [nM]	IC50 [2, 5] [nM]	IC50 [3, 6] [nM]	IC50 ([2]; Homo sapiens, PBMC, 48 h, read-out: IC50 (IFNγ)) [nM]	IC50 ([3]; Homo sapiens, PBMC, 48 h, read-out: IC50 (IL-17FF)) [nM]	IC50 [1, 7] [nM]	IC50 [2, 8] [nM]	IC50 [3, 9] [nM]
O=C(c1c(-c2c(F)cccc2Cl)noc1-c1cnn(-c2cccc(F)c2)c1C(F)(F)F)N1CCCO1 [Example I-118, (3-(2-chloro-6-fluorophenyl)-5-(1-(3-fluorophenyl)-5-(trifluoromethyl)-1H-pyrazol-4-yl)isoxazol-4-yl)(isoxazolidin-2-yl)methanone]	10 to 100	10 to 100	10 to 100	–	–	–	–	–
CC(C)OC(=O)c1c(-c2c(F)cccc2Cl)noc1-c1cnn(-c2ccccc2F)c1C(F)(F)F [Example I-43, i-Propyl 3-(2-chloro-6-fluorophenyl)-5-[1-(2-fluorophenyl)-5-(trifluoromethyl)-1H-pyrazol-4-yl]isoxazole-4-carboxylate]	10 to 100	10 to 100	100 to 1000	–	–	–	–	–
CNC(=O)c1c(-c2ccccc2Cl)noc1-c1cnn(-c2cccc(Cl)c2)c1C(F)(F)F [IB-63, 3-(2-chlorophenyl)-5-(1-(3-chlorophenyl)-5-(trifluoromethyl)-1H-pyrazol-4-yl)-N-methylisoxazole-4-carboxamide]	100 to 1000	100 to 1000	100 to 1000	–	–	–	–	–
Nc1c(-c2c(F)cccc2Cl)noc1-c1cnn(-c2cccc(F)c2)c1C(F)(F)F [Example I-117, 3-(2-chloro-6-fluorophenyl)-5-(1-(3-fluorophenyl)-5-(trifluoromethyl)-1H-pyrazol-4-yl)isoxazol-4-amine]	100 to 1000	100 to 1000	100 to 1000	–	–	–	–	–
CCOC(=O)c1c(-c2c(F)cccc2Cl)noc1-c1cnn(-c2ccccc2Cl)c1C(F)(F)F [IB-33, ethyl 3-(2-chloro-6-fluorophenyl)-5-(1-(2-chlorophenyl)-5-(trifluoromethyl)-1H-pyrazol-4-yl)isoxazole-4-carboxylate]	100 to 1000	–	–	100 to 1000	100 to 1000	–	–	–
COC(=O)c1c(-c2ccccc2Cl)noc1-c1cnn(-c2cccc(Cl)c2)c1C(F)(F)F [IB-71, methyl 3-(2-chlorophenyl)-5-(1-(3-chlorophenyl)-5-(trifluoromethyl)-1H-pyrazol-4-yl)isoxazole-4-carboxylate]	< 10	< 10	< 10	–	–	–	–	–
NS(=O)(=O)c1cccc(-n2ncc(-c3onc(-c4c(F)cccc4Cl)c3-c3nnco3)c2C(F)(F)F)c1 [Example B-17, 3-(4-(3-(2-chloro-6-fluorophenyl)-4-(1,3,4-oxadiazol-2-yl)isoxazol-5-yl)-5-(trifluoromethyl)-1H-pyrazol-1-yl)benzenesulfonamide]	–	–	–	–	–	1000 to 10000	1000 to 10000	1000 to 10000
Fc1ccc(-n2ncc(-c3onc(-c4c(F)cccc4Cl)c3Br)c2C(F)(F)F)c(F)c1 [IB-24, 4-bromo-3-(2-chloro-6-fluorophenyl)-5-(1-(2,4-difluorophenyl)-5-(trifluoromethyl)-1H-pyrazol-4-yl)isoxazole]	1000 to 10000	1000 to 10000	1000 to 10000	–	–	–	–	–
COC(=O)c1c(-c2c(F)cccc2Cl)noc1-c1cnn(-c2cc(F)cc(F)c2)c1C(F)(F)F [Example I-50, methyl 3-(2-chloro-6-fluorophenyl)-5-(1-(3,5-difluorophenyl)-5-(trifluoromethyl)-1H-pyrazol-4-yl)isoxazole-4-carboxylate]	< 10	< 10	< 10	–	–	–	–	–
Fc1cccc(-n2ncc(-c3onc(-c4c(F)cccc4Cl)c3-c3nnco3)c2C(F)(F)F)c1 [Example 7]	–	–	–	–	–	10 to 100	< 10	< 10
CCOC(=O)c1c(-c2c(Cl)cncc2Cl)noc1-c1cnn(-c2ccccc2F)c1C(F)(F)F [IB-9, ethyl 3-(3,5-dichloropyridin-4-yl)-5-(1-(2-fluorophenyl)-5-(trifluoromethyl)-1H-pyrazol-4-yl)isoxazole-4-carboxylate]	10 to 100	10 to 100	10 to 100	–	–	–	–	–
CCOC(=O)c1c(-c2ccncc2F)noc1-c1cnn(-c2cccc(Cl)c2)c1C(F)(F)F [IB-4, ethyl 5-(1-(3-chlorophenyl)-5-(trifluoromethyl)-1H-pyrazol-4-yl)-3-(3-fluoropyridin-4-yl)isoxazole-4-carboxylate]	1000 to 10000	100 to 1000	100 to 1000	–	–	–	–	–
